From paper PMC8237267 (Journal of Medicinal Chemistry, 2021)
Several values for one entry are separate records, joined by “and”; a condition that tells them apart may be missing. Equal entries are not always repeated. Where two headings read alike, the source gives them in different places.

Legend:
HDAC3 = target: T1, HDAC3 (Homo sapiens, UniProt O15379); test: HDAC EMSA activity assay (Nanosyn); format: biochemical; conditions: recombinant enzyme, read-out: In vitro IC50 HDAC3
T1 construct: The full-length human HDACs were recombinantly expressed and purified from SF9 insect cells; host or cells: SF9 insect cells
T1 sequence (O15379 whole entry): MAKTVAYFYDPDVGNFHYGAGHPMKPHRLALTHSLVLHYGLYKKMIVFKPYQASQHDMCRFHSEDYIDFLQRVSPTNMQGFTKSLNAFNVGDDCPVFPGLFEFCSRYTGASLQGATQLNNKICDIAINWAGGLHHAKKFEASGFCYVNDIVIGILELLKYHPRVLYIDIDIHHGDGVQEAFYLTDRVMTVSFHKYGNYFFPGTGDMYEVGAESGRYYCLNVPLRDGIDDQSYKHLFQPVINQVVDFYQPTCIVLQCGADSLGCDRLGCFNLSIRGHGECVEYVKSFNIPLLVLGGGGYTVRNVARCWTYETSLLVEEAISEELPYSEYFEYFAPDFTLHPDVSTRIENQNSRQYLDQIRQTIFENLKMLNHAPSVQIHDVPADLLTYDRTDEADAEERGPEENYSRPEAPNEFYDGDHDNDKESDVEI
T1 sequence (Q9Y618 395-489 partner limits assumed): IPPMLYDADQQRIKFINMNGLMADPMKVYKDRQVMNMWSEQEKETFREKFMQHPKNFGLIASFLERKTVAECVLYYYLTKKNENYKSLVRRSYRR

HDAC8 = target: T2, HDAC8 (Homo sapiens, UniProt Q9BY41); test: HDAC EMSA activity assay (Nanosyn); format: biochemical; conditions: recombinant enzyme, EMSA (Nanosyn); read-out: In vitro IC50 HDAC8
T2 construct: The full-length human HDACs were recombinantly expressed and purified from SF9 insect cells; host or cells: SF9 insect cells
T2 sequence (Q9BY41 1-377): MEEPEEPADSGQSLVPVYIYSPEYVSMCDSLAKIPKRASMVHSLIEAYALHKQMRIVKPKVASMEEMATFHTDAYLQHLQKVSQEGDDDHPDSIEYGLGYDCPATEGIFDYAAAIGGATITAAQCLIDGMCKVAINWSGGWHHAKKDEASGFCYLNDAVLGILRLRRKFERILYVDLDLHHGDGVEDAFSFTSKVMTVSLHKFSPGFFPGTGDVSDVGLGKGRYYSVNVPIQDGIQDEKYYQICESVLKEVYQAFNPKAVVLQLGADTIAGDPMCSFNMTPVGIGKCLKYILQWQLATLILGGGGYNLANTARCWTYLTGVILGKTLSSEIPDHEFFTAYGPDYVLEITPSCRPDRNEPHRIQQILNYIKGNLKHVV

HDAC11 = target: T3, HDAC11 (Homo sapiens, UniProt Q96DB2); test: HDAC EMSA activity assay (Nanosyn); format: biochemical; conditions: recombinant enzyme, read-out: In vitro IC50 HDAC11
T3 construct: The full-length human HDACs were recombinantly expressed and purified from SF9 insect cells; host or cells: SF9 insect cells
T3 sequence (Q96DB2 1-347): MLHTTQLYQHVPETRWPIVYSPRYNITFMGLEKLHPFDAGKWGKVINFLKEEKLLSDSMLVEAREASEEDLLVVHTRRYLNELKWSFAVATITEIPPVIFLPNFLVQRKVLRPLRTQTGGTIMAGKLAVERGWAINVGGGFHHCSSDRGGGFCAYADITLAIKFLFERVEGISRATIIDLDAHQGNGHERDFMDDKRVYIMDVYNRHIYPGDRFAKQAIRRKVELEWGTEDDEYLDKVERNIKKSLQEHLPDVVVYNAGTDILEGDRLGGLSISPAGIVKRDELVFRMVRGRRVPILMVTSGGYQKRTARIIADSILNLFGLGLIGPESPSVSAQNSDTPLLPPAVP

MRC-9 = test: Cytotoxicity assay (Cell Titer-Blue, 72 h); format: cell-based; conditions: MRC9; MRC-9 (healthy fibroblasts); read-out: In cellulo IC50 MRC-9
[1] = Glutathione stability / reactivity assay; format: in vitro ADME
Experimental: Although covalent modification of HDAC6 was not observed (Figure S2), the PFBS group is susceptible to nucleophilic aromatic substitution by biological nucleophiles. A previously described high-throughput in vitro glutathione-reactivity assay was conducted, where compounds were incubated in the presence of glutathione (GSH) and the formation of a GSH-compound adduct was monitored over time via LC/MS/MS.[50]
Compound was added to PBS and 5 mM GSH to reach a final concentration of 5 μM. […] Samples were vortexed and centrifuged for 45 min at 3220g. Aliquots were diluted by ultrapure water, and used for LC/MS/MS analysis. Peak area ratios were determined and percent compounds remaining was calculated by the following equation: [drawing 1] where peak area ratio (t min) is the peak area ratio of control and test compounds at t min; peak area ratio0min is the peak area ratio of control and test compounds at the zero time point. In vitro half-life (t1/2) = −(0.693/k).

[2] = In vitro stability in mouse hepatocytes; format: in vitro ADME; conditions: read-out: Stability in mouse hepatocytes t1/2
Experimental: The inhibitors (and controls) were formulated to concentrations of 100 μM in 50% acetonitrile/50% water. The medium (William’s E Medium supplemented with GlutaMAX) and hepatocyte thawing medium were allowed to reach room temperature and the hepatocytes and thawing medium and centrifuged at 100 g for 10 min. The supernatant was removed, and hepatocytes resuspended in the incubation medium (∼1.5 × 10^6 cells/mL). The cells were diluted to 0.5 × 10^6 viable cells/mL. A volume of 198 μL of hepatocytes was transferred to a 96-well noncoated plate and incubated at 37 °C for 10 min. Following this, 2 μL of the 100 μM test compounds or positive control was transferred into respective wells to start the reaction. At different time points (0, 15, 30, 60, 90, and 120 min), 25 μL aliquots were mixed with 6 volumes (150 μL) of acetonitrile containing internal standard, IS (100 nM alprazolam, 200 nM labetalol, 200 nM caffeine, and 200 nM diclofenac) to terminate the reaction. Samples were vortexed for 5 min and centrifuged for 45 min at 3220g, diluted by ultrapure water, followed by LC/MS/MS analysis. The in vitro half-life (T1/2) was determined by regression analysis of the percent parent disappearance vs time curve (T1/2 = 0.693/k) using Microsoft Excel.

[3] = Stability in human hepatocytes; format: in vitro ADME; conditions: read-out: t1/2 in human hepatocytes
[4] = Stability in hepatocytes (species not stated); format: in vitro ADME; parameters: dose or concentration left out as unconfirmed; conditions: mouse, species not given
HDAC6 [5] = target: T4, HDAC6 (Homo sapiens, UniProt Q9UBN7); test: Time-dependent IC50 assay with preincubation (0-6 h); format: biochemical; conditions: 6 h time-dependent assay
T4 sequence (Q9UBN7 1-1215): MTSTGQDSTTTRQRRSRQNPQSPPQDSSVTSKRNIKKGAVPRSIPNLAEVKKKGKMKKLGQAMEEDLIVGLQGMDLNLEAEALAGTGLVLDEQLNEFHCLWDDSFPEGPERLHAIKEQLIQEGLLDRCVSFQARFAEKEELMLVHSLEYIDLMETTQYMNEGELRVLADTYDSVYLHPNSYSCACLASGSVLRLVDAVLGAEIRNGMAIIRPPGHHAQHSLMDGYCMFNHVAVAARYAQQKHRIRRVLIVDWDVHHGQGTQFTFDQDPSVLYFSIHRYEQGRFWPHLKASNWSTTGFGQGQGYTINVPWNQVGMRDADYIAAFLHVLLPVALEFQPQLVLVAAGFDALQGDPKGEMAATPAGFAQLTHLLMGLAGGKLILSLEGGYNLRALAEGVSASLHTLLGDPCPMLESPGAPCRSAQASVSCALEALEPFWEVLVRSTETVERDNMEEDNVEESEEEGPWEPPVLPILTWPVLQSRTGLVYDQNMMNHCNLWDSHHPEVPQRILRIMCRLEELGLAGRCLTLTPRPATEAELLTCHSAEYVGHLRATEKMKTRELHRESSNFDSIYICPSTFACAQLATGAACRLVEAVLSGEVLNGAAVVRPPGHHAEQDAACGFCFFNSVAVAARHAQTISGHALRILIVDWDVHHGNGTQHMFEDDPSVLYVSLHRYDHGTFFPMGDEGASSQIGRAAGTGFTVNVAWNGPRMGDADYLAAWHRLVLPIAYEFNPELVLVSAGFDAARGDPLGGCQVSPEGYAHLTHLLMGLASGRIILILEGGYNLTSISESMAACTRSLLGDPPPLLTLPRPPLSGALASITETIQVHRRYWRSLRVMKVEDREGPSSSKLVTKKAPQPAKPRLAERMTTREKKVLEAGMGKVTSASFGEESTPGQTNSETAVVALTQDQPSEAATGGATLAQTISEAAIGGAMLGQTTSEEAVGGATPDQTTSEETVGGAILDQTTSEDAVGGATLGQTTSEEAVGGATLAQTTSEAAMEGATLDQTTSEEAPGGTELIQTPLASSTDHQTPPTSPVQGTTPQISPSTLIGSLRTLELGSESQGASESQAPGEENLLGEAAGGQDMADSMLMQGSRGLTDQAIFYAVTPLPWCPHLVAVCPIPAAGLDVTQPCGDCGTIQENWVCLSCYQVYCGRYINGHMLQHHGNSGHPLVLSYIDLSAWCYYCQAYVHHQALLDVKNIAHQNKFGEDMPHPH
Experimental: The binding kinetics profile of KT-531 was also investigated by determining the association (kon)/dissociation (koff) rates as well as residence time parameters. The in vitro residence time (1/kobs) for the KT-531–HDAC6 complex was determined to be 23.18 min, as compared to 10.72 min for 1.

HDAC6 [6] = target: T4, HDAC6; test: HDAC EMSA activity assay (Nanosyn); format: biochemical; parameters: The full-length human HDACs were recombinantly expressed and purified from SF9 insect cells; host or cells: SF9 insect cells; conditions: for IC50: EMSA (Nanosyn); for HDAC6 fold-selectivity: over the next closest HDAC isoform tested, * = selectivity ≥ indicated value
MV4-11 = test: Cytotoxicity assay (Cell Titer-Blue, 72 h); format: cell-based; conditions: Homo sapiens; MV4-11 (AML); read-out: In cellulo IC50 MV4-11
[7] = Stability in mouse plasma; format: in vitro ADME; parameters: half-life at 2 h: dose or concentration left out as unconfirmed; conditions: read-out: Plasma stability t1/2
Experimental: The plasma stability of the compounds was evaluated in mouse plasma provided from Sigma-Aldrich, Oakville, Canada. The main stock solutions of the compounds were prepared at 10 mM in DMSO, which was diluted to 100 μM in 50% acetonitrile (ACN)/50% water. Aliquots of 356.5 μL of plasma proteins were placed in a heating block and allowed to equilibrate at 37 °C for 5 min. Then, 3.5 μL of 100 μM compound solutions were added to each vial (final concentration of 1 μM). Three quality control (QC) samples at 100, 500, and 1000 nM were prepared in 0.5% ACN. The vial contents were transferred in 50 μL aliquots at time points of 0.5, 5, 10, 20, 30, and 60 mi to a 96-well autosampler plate containing 150 μL of protein precipitation solution. Ice-cold ACN containing internals standards (100 nM glyburide) were used as the protein precipitation solution. After centrifugation at 4 °C, 5500 rpm for 15 min, the supernatant was diluted in MQ water, and injected into the LC/MS/MS for quantitative analysis.
The mobile phase consisted of (A) 0.1% (v/v) formic acid in Milli-Q water; (B) 0.1% (v/v) formic acid in acetonitrile. […] Peak areas were determined from extracted ion chromatograms. The in vitro half-life (t1/2) of parent compounds were determined by regression analysis of the percent parent disappearance vs time curve.

HDAC6 [8] = target: T4, HDAC6; test: Reversibility of inhibition (Koff kinetics), residence time; format: biochemical; conditions: compound-HDAC6 complex; read-out: in vitro residence time (1/kobs)
Source text: Progress curves were obtained after dilution, and enzyme recovery was fitted with the following equation: % conv = Vs × t + (Vi – Vs)/Kobs app × (1 – exp(−Kobs app × t), in which Vi is the initial velocity, Vs is steady state velocity, and Kobs is the observed rate constant. The obtained Kobs rate constant was used to determine the reversibility of inhibition and calculate residence time as 1/2Tres = ln2 × 1/Kobs.

[9] = PBS with 5 mM glutathione (GSH), 5 mM GSH, PBS, read-out: half-life in incubation with GSH
[10] = recombinant enzyme, read-out: In vitro IC50 HDAC6

| Structure (SMILES) | IC50 (HDAC3) [nM] | IC50 (HDAC8) [nM] | IC50 (HDAC11) [nM] | IC50 (MRC-9) [nM] | half-life at 5 μM [1, 9] [min] | half-life at 2 h, 5 µM [1, 9] [min] | half-life at 1 μM [2] [min] | half-life [3] [min] | half-life at 2 h [4] [min] | reversibility of binding (IC50 over preincubation time) (HDAC6 [5]) | IC50 (HDAC6 [6]; read-out: IC50 HDAC6) [nM] | IC50 (MV4-11) [nM] | reactivity with glutathione ([1]; GSH adduct formation by LC/MS/MS, KT-531 up to 24 h) | half-life at 2 h [7] [min] | HDAC6 fold-selectivity (HDAC6 [6]) | IC50 (HDAC6 [6]; [10]) [nM] | residence time (HDAC6 [8]) [min] |
| --- | --- | --- | --- | --- | --- | --- | --- | --- | --- | --- | --- | --- | --- | --- | --- | --- | --- |
| O=C(NO)c1ccc(CN(C2CC2)S(=O)(=O)c2c(F)c(F)c(F)c(F)c2F)cc1 [Compound 5, 4-(((N-Cyclopropyl-2,3,4,5,6-pentafluorophenyl)sulfonamido)methyl)-N-hydroxybenzamide] | 70 | 29 | 47 | > 20000 | ~20 | 20 | < 2.26 | 3.84 | 3 | unchanged IC50 values | 0.9 |  |  |  |  |  |  |
| O=C(NO)c1ccc(CN(C2CC2)S(=O)(=O)c2c(F)c(F)cc(F)c2F)cc1 [Compound 6, 4-(((N-Cyclopropyl-2,3,5,6-tetrafluorophenyl)sulfonamido)methyl)-N-hydroxybenzamide] | > 1000 | 378 | > 1000 | > 15000 |  |  |  |  |  |  |  | 6140 | unreactive toward GSH | 25 | 37.8 fold | 10 |  |
| O=C(NO)c1ccc(CNC(=O)c2c(F)c(F)c(F)c(F)c2F)cc1 [Compound 1, 2,3,4,5,6-Pentafluoro-N-(4-(hydroxycarbamoyl)benzyl)benzamide] | 200 | 700 | > 1000 | > 50000 |  |  |  |  |  |  | 5.9 | 1850 |  |  | 36 fold and 36.32 fold | 6 | 10.7 |
